The results in this text go back to paper PMC12717099, “Peptidoglycan recruitment by a penicillin binding protein” (Nature Communications, 2025).

Assay [1] deals with E. faecium D344SRF pCWR624Δpbp5_pbp5_V5. As to the kind of experiment: MIC by broth microdilution, pbp5_V5. The conditions noted are these: strain pbp5_V5 (Q396A_E397A); 37 °C, 20 h; n=3. It is filed as cell-based, Enterococcus faecium. As for the experimental part: (§1) The synthetic genes were purchased from GeneWiz (South Plainfield, NJ). The ribosome binding site sequence AGGAGG (Shine-Dalgarno), and a string of five A’s followed by the sequence […], that corresponds to the first 15 bp found in pbp5 from E. faecium C68 were added upstream of the START codon. The terminator sequence […] was added downstream of the STOP codon. BamHI restriction sites were added to the flanking 5′ and 3′ ends. The synthetic genes were inserted into the vector pCWR624Δpbp5. This vector was derived from pCWR624[10], in which the pbp5 gene from D366 was excised by digestion with BamHI followed by re-ligation of the vector, allowing subsequent insertion of modified synthetic pbp5s into the BamHI site downstream of ftsWEfm and psr from E. faecium C68[10]. The synthetic genes were inserted in a BamHI site located downstream of psr. The proper orientation was confirmed by PCR amplification using the forward primer OR_pbp5_FOR_1 (5′-[…]-3′) and the reverse primer OR_pbp5_REV_1 (5′-[…]-3′). Plasmids were sequence verified for the specific binding site mutations. The resulting constructions were electroporated into the natural pbp5(-) mutant E. faecium D344SRF with a selection on brain heart infusion agar (BHI) plates containing kanamycin (1500 µg/ml).
(§2) E. faecium strains were streaked fresh from −80 °C stored glycerol stocks onto brain heart infusion (BHI) agar plates and incubated for 18 h at 37 °C. Strains harboring the plasmid derivatives were grown under antibiotic pressure on agar plates containing kanamycin at 1500 µg/ml. A single colony was inoculated into BHI or BHI-kanamycin (1500 µg/ml) for overnight cultures (18 h).
MIC determination was performed using a standard broth microdilution technique in duplicate from independent cultures. Overnight cultures were inoculated into 3 ml of BHI or BHI-kanamycin (1500 µg/ml) broth in a dilution of 1:100 and incubated until an OD600 of ~0.5 was reached. Cultures were diluted 1:1000 and inoculated into the 96-well plates with the corresponding antibiotics to be tested. Plates were incubated at 37 °C for 20 h and read by eye. […]
For orientation: In broth dilution the organism is exposed to a series of concentrations in liquid medium.

Assay [2] deals with E. faecium D344SRF, Wild Type. As to the kind of experiment: MIC by broth microdilution, Wild Type. Type of assay: cell-based, Enterococcus faecium. The conditions noted are these: strain Wild Type; BHI broth microdilution, 37 °C, 20 h, read by eye; n=3. As to the method:
as §2
MIC determination was performed using a standard broth microdilution technique in duplicate from independent cultures. Overnight cultures were inoculated into 3 ml of BHI or BHI-kanamycin (1500 µg/ml) broth in a dilution of 1:100 and incubated until an OD600 of ~0.5 was reached. Cultures were diluted 1:1000 and inoculated into the 96-well plates with the corresponding antibiotics to be tested. Plates were incubated at 37 °C for 20 h and read by eye. The MICs were defined as the lowest antibiotic concentration that inhibited growth.

The test system of assay [3] is E. faecium D344SRF pCWR624Δpbp5_pbp5_V1. As to the kind of experiment: Disk diffusion assay, pbp5_V1. Type of assay: cell-based, Enterococcus faecium. The note with it: strain pbp5_V1 (N523A); 37 °C, 24 h; n=3. As to the method:
as §1, §2
Antibiotic disks used were manufactured by BD BBL^TM. Disk diffusion assays were performed according to the Clinical and Laboratory Standards Institute (CLSI) guidance. Overnight cultures were inoculated into 3 ml of BHI or BHI-kanamycin (1500 µg/ml) broth with a dilution of 1:100 and incubated until an OD600 of ~0.5 was reached. […] The plates were incubated at 37 °C and the zones of inhibition were measured after 24 h. […]
(In general: A growth-free zone around the sample is the usual read-out of agar diffusion tests.)

Assay [4] has as its system PBP5:ceftaroline complex (1:8). Briefly: NMR CSP titration of SP2 into ceftaroline-saturated PBP5. Type of assay: binding, Enterococcus faecium. The note with it: PBP5:ceftaroline 1:8. As to the method: Data was processed using Topspin 4.1.4 (Bruker) and analyzed using NMRFAM-SPARKY 1.3 and Poky (build number 20240829)[20],[21]. The sequence-specific backbone assignment of PBP5 is publicly available at BMRBID 51690.
SPs (SP1 to SP7) were titrated into 0.5 mM (^2H,^15N)-labeled and 0.1 mM (^2H,^15N)/^13C ILV labeled PBP5 at molar ratios of 0:1, 5:1, 10:1, 20:1, 40:1, 60:1, and 80:1 (stem peptide/SP:PBP5; molar ratios). 2D [^1H,^15N] TROSY or 2D [^1H,^13C] HMQC spectra were recorded for each titration point. SPs were solubilized in NMR buffer. Chemical shift perturbations (Δδ) between PBP5 and SP bound PBP5 spectra were calculated using Eq. 1,1 Δδppm=ΔδH^2+ΔδX/Y^2 where, X is ^15N or ^13C and Y is the constant i.e., 10 for ^15N and 4 for ^13C.
Residues with significant CSPs were identified by calculating the standard deviation of all CSPs (σ), then excluding any CSPs larger than average+2σ, recalculating σ as a new corrected σ0, and then repetitively removing CSPs above 2σ0 until no additional CSPs can be removed. CSPs above ≥2σ2 was the statistical threshold for ^1H/^15N backbone CSP analysis and ≥2xσ1 for ^1H/^13C methyl ILV data for the interaction of SP1 with PBP5. The same threshold values were used for all other peptides to allow for direct comparison with the SP1/PBP5 interaction. […]

In a further assay the test system is PBP5-S422A. Briefly: 1D 1H STD NMR of SP2 with PBP5-S422A. The note with it: for STD amplification factor, 2000: 2 s saturation. It is filed as binding, Enterococcus faecium. An excerpt: Total saturation time for STD measurements was 2 s.
Overlapped peaks were completely excluded from the analysis.

In the case of `CO/N=C(\C(=O)N[C@@H]1C(=O)N2C(C(=O)O)=C(CSc3nc(=O)c(=O)[nH]n3C)CS[C@H]12)c1csc(N)n1` [Ceftriaxone, ceftriaxone], the “MIC (µg/ml) [Range]” value in assay [1] was > 3200 [>3200] µg/ml; in assay [2], 50 [25-100] µg/ml. Moreover, in assay [3], the “Zone Size (mm) [Range]” value was 0 [0] mm.

Turning to D-Lac-L-Ala-D-iGln-L-Lys(D-iAsn) [SP2], the “CSPs with ceftaroline-saturated PBP5 vs β-lactam free and PenG-saturated PBP5, in words” value in assay [4] is listed as “virtually identical”. Besides, the “STD % to SP1” value in the assay with PBP5-S422A (1H DLacβ) is 42.7391%; with PBP5-S422A (1H DQ2β (first listed)), 84.4303%; with PBP5-S422A (1H DQ2β (second listed)), 106.599%; in the assay on PBP5-S422A (1H DQ2γ), 33.2164%; in the assay with PBP5-S422A (1H K3α), 52.4105%; in the assay with PBP5-S422A (1H K3β), 115.403%. The “STD % to SP1” value in the assay with PBP5-S422A (1H K3γ) is 71.5712%; with PBP5-S422A (1H K3δ), 86.8848%; in the assay with PBP5-S422A (1H K3ε) it was 15.5454%; in the assay on PBP5-S422A (1H LA1α), 31.0506%; in the assay on PBP5-S422A (1H LA1β), 44.3762%; with PBP5-S422A (1H iNα,DQ2α), 24.4286%. Also, in the assay with PBP5-S422A (1H iNβ), the “STD % to SP1” value is reported as 38.4337%. Further, the “STD amplification factor as fraction of highest SP1:PBP5 value” (from here on “STD amplification factor as fraction”) with PBP5-S422A (1H DLacβ) is 0.4274; with PBP5-S422A (1H DQ2β (first listed)) it was 0.8443; in the assay on PBP5-S422A (1H DQ2β (second listed)), 1.066; in the assay on PBP5-S422A (1H DQ2γ), 0.3322; with PBP5-S422A (1H K3α) it was 0.5241; in the assay on PBP5-S422A (1H K3β) it was 1.154. Besides, the “STD amplification factor as fraction” value in the assay with PBP5-S422A (1H K3γ) is reported as 0.7157; with PBP5-S422A (1H K3δ), 0.8688; with PBP5-S422A (1H K3ε), 0.1555; in the assay on PBP5-S422A (1H LA1α) it was 0.3105; in the assay with PBP5-S422A (1H LA1β), 0.4438; in the assay with PBP5-S422A (1H iNα,DQ2α), 0.2443. For the same molecule, the “STD amplification factor as fraction” value with PBP5-S422A (1H iNβ) is given as 0.3843. Also, the “STD amplification factor, 2000” value with PBP5-S422A (1H DLacβ) came to 11.5004; in the assay on PBP5-S422A (1H DQ2β (first listed)) it was 22.7188; with PBP5-S422A (1H DQ2β (second listed)), 28.6841; with PBP5-S422A (1H DQ2γ), 8.938; with PBP5-S422A (1H K3α), 14.1028; in the assay on PBP5-S422A (1H K3β) it was 31.053. Further, the “STD amplification factor, 2000” value is on record as 19.2587 in the assay with PBP5-S422A (1H K3γ); 23.3793 with PBP5-S422A (1H K3δ); 4.183 in the assay on PBP5-S422A (1H K3ε); 8.355 with PBP5-S422A (1H LA1α); 11.9409 in the assay on PBP5-S422A (1H LA1β); 6.573 in the assay on PBP5-S422A (1H iNα,DQ2α). Also, the “STD amplification factor, 2000” value in the assay with PBP5-S422A (1H iNβ) is listed as 10.3419.
